This passage reports inhibition and Activity results from ChEMBL document CHEMBL1139654, “Antiangiogenic activity of deoxoartemisinin derivatives on chorioallantoic membrane” (Bioorg Med Chem Lett, 2006).

The inhibition is the share of the control response that was lost under treatment. A low value points to a weak effect.

The species named for the assay is Gallus gallus. As to the kind of experiment: Antiangiogenic activity at chorioallantoic membrane of chick embryo at 5 nmol per egg. In kind it is functional, organism-based.

SMILES strings stand for the structures.

In turn, `CO[C@@H]1[C@H](OC(=O)/C=C/C=C/C=C/C=C/C(=O)O)CC[C@]2(CO2)[C@H]1[C@@]1(C)O[C@@H]1CC=C(C)C` displayed an inhibition of 57%. The same measure, in the same setting: then `C[C@H]1[C@@H](CCO)O[C@@H]2O[C@]3(C)CC[C@H]4[C@H](C)CC[C@@H]1[C@@]24OO3`, with 63%; and `C[C@@H]1CC[C@H]2[C@@H](C)CO[C@@H]3O[C@]4(C)CC[C@@H]1[C@]32OO4`, with 29%; and `C=C1CO[C@@H]2O[C@]3(C)CC[C@H]4[C@H](C)CC[C@@H]1[C@@]24OO3`, with 29%. The same measure, in the same setting: the figure for `C[C@H]1[C@@H](O)O[C@@H]2O[C@@]3(C)CC[C@H]4[C@H](C)CC[C@@H]1[C@@]24OO3` is 25%. Same read-out and setting: then `C[C@@H]1CC[C@H]2[C@H](CBr)CO[C@@H]3O[C@]4(C)CC[C@@H]1[C@]32OO4`, with 75%; and `C[C@H]1[C@@H](CCCC(=O)O)O[C@@H]2O[C@]3(C)CC[C@H]4[C@H](C)CC[C@@H]1[C@@]24OO3`, with 50%. `C[C@@H]1CC[C@H]2[C@@H](C(=O)O)CO[C@@H]3O[C@]4(C)CC[C@@H]1[C@]32OO4`: the inhibition worked out at 20%. The same measure, in the same setting: the figure for `CCCC[C@H]1O[C@@H]2O[C@]3(C)CC[C@H]4[C@H](C)CC[C@@H]([C@H]1C)[C@@]24OO3` is 63%; for `C[C@@H]1CC[C@H]2[C@@H](COC[C@H]3CO[C@@H]4O[C@]5(C)CC[C@H]6[C@H](C)CC[C@@H]3[C@@]46OO5)CO[C@@H]3OC4(C)CC[C@@H]1[C@]32OO4` (single isomer, unassigned) it is 71%.

The molecule `CCS[C@H]1O[C@@H]2O[C@]3(C)CC[C@H]4[C@H](C)CC[C@@H]([C@H]1C)[C@@]24OO3` registered an inhibition of 17%. Still for that read-out and setting: the figure for `C[C@H]1[C@@H](CCc2ccc(C(=O)O)cc2)O[C@@H]2O[C@]3(C)CC[C@H]4[C@H](C)CC[C@@H]1[C@@]24OO3` is 29%; for `C[C@@H]1CC[C@H]2[C@@H](CO)CO[C@@H]3O[C@]4(C)CC[C@@H]1[C@]32OO4` it is 29%. For the molecule `C[C@H]1[C@@H](CCN)O[C@@H]2O[C@]3(C)CC[C@H]4[C@H](C)CC[C@@H]1[C@@]24OO3`, the inhibition worked out at 29%. Still for that read-out and setting: the figure for `C[C@H]1[C@@H](CCNC(=O)CC[C@H]2O[C@@H]3O[C@]4(C)CC[C@H]5[C@H](C)CC[C@@H]([C@H]2C)[C@@]35OO4)O[C@@H]2O[C@]3(C)CC[C@H]4[C@H](C)CC[C@@H]1[C@@]24OO3` is 43%; for `CCO[C@H]1O[C@@H]2O[C@@]3(C)CC[C@H]4[C@H](C)CC[C@@H]([C@H]1C)[C@@]24OO3` it is 29%; for `C[C@@H]1CC[C@H]2[C@@H](C)C(=O)O[C@@H]3O[C@@]4(C)CC[C@@H]1[C@]32OO4` it is 25%.

Molecule `O=C1CC[C@H](N2C(=O)c3ccccc3C2=O)C(=O)N1` showed an inhibition of 50%. In the case of `C[C@H]1[C@@H](CCS(=O)(=O)CC[C@H]2O[C@@H]3O[C@]4(C)CC[C@H]5[C@H](C)CC[C@@H]([C@H]2C)[C@@]35OO4)O[C@@H]2O[C@@]3(C)CC[C@H]4[C@H](C)CC[C@@H]1[C@@]24OO3`, the Activity entry was “Toxic”.

Take `C[C@H]1[C@@H](CCCOC(=O)CC(=O)OCCC[C@H]2O[C@@H]3O[C@]4(C)CC[C@H]5[C@H](C)CC[C@@H]([C@H]2C)[C@@]35OO4)O[C@@H]2O[C@]3(C)CC[C@H]4[C@H](C)CC[C@@H]1[C@@]24OO3`: the inhibition is 14%. With `C[C@H]1[C@@H](CC[S+]([O-])CC[C@H]2O[C@@H]3O[C@]4(C)CC[C@H]5[C@H](C)CC[C@@H]([C@H]2C)[C@@]35OO4)O[C@@H]2O[C@@]3(C)CC[C@H]4[C@H](C)CC[C@@H]1[C@@]24OO3`, the Activity result is “Toxic”. Take `C[C@H]1[C@@H](CCBr)O[C@@H]2O[C@]3(C)CC[C@H]4[C@H](C)CC[C@@H]1[C@@]24OO3`: the inhibition amounted to 29%.
